In ChEMBL document CHEMBL1909046, “DrugMatrix in vitro pharmacology data”:

Experiments:
[1] = DRUGMATRIX: Sodium/nucleoside co-transporter radioligand binding (ligand: nitrobenzylthioinosine); assay type: cell membranes, Cavia porcellus, Dunkin-Hartley, Cerebral cortex, Membrane; conditions: Not Active = under 50% inhibition at 10 µM
Leukotriene C4 synthase = molecular target: T1, Leukotriene C4 synthase (Cavia porcellus, UniProt A6XA80); assay type: tissue-based, Lung;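 note: enzyme inhibition assay of leukotriene C4 synthase, using LTA4 as the substrate; in other assays of this panel Not Active means under 50% inhibition at 10 µM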
T1 sequence (A6XA80 whole entry): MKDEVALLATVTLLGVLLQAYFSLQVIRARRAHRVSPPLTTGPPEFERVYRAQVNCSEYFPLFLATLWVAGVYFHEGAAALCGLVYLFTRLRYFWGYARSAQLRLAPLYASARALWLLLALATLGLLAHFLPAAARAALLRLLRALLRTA

Nitric oxide synthase 1 = Nitric oxide synthase 1 (Rattus norvegicus, UniProt P29476); assay type: tissue-based, Cerebellum; note: in other assays of this panel Not Active means under 50% inhibition at 10 µM
Chain of Nitric oxide synthase 1 (P29476 whole entry): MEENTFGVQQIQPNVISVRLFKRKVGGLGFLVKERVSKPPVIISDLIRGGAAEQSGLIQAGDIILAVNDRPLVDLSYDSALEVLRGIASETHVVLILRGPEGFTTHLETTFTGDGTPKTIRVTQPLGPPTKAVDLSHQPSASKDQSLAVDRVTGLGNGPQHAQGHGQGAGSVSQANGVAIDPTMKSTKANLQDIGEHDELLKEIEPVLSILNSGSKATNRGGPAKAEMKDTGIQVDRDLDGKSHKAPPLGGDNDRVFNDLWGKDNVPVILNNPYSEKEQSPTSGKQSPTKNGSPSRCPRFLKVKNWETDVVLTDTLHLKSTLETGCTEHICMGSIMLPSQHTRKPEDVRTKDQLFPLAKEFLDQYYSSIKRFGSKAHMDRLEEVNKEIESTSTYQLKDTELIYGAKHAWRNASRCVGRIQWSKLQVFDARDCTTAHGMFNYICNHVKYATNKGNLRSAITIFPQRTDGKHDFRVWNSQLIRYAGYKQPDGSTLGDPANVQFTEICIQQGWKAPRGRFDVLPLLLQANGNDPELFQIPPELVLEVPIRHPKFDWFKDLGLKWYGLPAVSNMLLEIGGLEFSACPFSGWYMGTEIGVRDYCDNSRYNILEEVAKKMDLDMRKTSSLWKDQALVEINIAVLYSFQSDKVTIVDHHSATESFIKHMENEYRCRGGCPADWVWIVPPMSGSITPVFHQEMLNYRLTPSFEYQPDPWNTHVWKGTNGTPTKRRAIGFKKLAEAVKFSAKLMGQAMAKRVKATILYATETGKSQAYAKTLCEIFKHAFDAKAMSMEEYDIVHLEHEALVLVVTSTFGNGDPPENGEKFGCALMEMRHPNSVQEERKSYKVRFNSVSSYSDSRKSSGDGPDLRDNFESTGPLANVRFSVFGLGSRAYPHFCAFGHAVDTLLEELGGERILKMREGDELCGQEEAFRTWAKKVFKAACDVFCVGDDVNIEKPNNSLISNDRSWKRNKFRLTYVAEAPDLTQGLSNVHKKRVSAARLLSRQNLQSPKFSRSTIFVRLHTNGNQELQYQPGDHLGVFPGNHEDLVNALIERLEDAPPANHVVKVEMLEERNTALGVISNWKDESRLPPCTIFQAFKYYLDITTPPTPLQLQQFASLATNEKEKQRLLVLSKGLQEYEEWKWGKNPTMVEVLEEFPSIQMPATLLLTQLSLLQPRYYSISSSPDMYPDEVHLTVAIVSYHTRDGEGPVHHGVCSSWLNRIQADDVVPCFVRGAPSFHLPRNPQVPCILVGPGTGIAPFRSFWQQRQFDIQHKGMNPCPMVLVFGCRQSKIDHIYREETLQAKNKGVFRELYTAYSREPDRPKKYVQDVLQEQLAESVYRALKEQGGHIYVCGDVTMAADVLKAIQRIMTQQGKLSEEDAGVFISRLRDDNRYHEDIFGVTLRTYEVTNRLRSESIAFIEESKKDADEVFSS

Progesterone receptor = molecular target: T2, Progesterone receptor (Bos taurus, UniProt Q690N0); assay: DRUGMATRIX: Progesterone radioligand binding (ligand: [3H] R-5020); assay type: tissue-based, Uterus; conditions: Not Active = under 50% inhibition at 10 µM; for Ki: read-out: Ki
T2 sequence (Q690N0 whole entry): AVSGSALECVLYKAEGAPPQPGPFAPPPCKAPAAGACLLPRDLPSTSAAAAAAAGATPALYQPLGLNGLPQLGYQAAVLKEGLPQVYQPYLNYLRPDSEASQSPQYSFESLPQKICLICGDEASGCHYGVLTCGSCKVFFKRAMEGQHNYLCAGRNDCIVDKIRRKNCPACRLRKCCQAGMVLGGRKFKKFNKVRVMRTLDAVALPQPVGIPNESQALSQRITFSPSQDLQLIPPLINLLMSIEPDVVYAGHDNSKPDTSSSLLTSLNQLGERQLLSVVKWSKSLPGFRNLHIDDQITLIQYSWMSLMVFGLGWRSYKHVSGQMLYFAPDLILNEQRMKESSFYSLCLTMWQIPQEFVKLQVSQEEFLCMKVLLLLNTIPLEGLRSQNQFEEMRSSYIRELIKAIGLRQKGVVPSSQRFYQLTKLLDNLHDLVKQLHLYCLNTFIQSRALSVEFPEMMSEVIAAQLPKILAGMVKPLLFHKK

[2] = molecular target: T3, Receptor-type tyrosine-protein phosphatase C (Homo sapiens, UniProt P08575); set-up: species or system Escherichia coli;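 note: inhibition of CD45 enzyme activity measured using DiFMUP as substrate; in other assays of this panel Not Active means under 50% inhibition at 10 µM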
T3 sequence (P08575 whole entry): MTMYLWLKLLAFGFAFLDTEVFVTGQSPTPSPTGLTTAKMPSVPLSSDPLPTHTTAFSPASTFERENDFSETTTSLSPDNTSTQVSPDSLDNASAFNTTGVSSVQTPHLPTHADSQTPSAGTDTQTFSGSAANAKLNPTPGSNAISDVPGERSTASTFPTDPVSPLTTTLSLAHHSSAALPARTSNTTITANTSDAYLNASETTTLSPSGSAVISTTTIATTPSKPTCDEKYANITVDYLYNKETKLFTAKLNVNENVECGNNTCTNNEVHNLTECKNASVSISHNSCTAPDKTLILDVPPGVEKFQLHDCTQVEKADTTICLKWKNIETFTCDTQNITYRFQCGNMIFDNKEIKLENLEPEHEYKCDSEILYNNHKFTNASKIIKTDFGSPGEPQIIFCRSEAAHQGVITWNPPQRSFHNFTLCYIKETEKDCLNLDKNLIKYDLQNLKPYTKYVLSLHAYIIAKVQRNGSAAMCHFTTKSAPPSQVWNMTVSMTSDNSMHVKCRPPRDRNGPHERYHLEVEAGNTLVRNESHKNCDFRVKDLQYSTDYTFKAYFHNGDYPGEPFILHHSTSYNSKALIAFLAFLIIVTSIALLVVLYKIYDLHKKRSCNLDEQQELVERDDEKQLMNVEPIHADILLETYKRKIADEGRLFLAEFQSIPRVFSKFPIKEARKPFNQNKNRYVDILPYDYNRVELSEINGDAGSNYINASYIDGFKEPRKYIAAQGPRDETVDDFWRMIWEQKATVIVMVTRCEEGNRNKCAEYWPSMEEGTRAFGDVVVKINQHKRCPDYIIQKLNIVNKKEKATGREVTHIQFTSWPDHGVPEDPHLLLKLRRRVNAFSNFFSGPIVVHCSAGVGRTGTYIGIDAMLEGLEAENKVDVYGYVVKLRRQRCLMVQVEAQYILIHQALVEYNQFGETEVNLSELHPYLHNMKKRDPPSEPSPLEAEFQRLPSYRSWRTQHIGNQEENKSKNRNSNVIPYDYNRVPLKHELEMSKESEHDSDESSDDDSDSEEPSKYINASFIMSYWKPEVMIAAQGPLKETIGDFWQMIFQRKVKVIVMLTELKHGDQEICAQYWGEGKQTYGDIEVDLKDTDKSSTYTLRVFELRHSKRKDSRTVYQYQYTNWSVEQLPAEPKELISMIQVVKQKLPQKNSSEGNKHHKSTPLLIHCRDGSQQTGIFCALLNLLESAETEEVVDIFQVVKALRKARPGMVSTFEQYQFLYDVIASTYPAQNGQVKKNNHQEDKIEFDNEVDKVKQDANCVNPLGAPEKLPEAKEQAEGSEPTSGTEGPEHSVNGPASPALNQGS

Cytochrome P450 2C19 = Cytochrome P450 2C19 (Homo sapiens, UniProt P33261); conditions: bti-tn-5b1-4; note: in other assays of this panel Not Active means under 50% inhibition at 10 µM
Chain of Cytochrome P450 2C19 (P33261 whole entry): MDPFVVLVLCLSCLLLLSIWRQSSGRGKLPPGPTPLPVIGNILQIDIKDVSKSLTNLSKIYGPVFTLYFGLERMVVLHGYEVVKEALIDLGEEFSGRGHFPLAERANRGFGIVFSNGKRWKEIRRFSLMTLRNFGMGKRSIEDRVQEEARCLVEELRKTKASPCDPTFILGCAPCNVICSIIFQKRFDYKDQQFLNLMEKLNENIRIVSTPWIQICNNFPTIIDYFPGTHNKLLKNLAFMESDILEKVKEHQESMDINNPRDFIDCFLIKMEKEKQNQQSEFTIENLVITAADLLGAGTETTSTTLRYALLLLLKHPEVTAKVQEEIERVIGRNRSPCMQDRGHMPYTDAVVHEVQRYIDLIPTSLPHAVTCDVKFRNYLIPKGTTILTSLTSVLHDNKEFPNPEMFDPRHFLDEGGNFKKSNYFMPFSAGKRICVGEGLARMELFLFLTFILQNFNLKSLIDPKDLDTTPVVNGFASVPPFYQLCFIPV

Estrogen receptor = molecular target: T4, Estrogen receptor (Homo sapiens, UniProt P03372); conditions: sf9; note: in other assays of this panel Not Active means under 50% inhibition at 10 µM
T4 sequence (P03372 whole entry): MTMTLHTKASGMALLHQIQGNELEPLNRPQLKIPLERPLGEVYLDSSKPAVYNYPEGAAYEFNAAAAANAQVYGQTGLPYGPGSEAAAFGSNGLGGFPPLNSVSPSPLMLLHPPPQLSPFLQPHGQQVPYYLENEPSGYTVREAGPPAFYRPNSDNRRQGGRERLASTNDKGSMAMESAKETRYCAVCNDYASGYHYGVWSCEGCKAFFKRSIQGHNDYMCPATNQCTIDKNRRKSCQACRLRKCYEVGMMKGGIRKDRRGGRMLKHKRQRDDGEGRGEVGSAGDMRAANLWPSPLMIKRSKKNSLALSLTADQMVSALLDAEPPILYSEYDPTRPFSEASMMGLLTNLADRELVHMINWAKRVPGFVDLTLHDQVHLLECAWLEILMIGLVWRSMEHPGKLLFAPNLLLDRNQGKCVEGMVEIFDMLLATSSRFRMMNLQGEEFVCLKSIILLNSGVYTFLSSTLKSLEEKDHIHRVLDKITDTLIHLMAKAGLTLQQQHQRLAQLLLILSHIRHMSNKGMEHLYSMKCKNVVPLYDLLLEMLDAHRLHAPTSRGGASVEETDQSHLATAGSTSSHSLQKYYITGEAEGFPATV

Compound | IC50 [1] | Ki [1] | IC50 (Leukotriene C4 synthase) | IC50 (Nitric oxide synthase 1) | IC50 (Progesterone receptor) | IC50 [2] | IC50 (Cytochrome P450 2C19) | Ki (Cytochrome P450 2C19) | IC50 (Estrogen receptor) | IC50 (Progesterone receptor; read-out: IC50) [µM] | Ki (Progesterone receptor) [µM]
CCCN(CCC)C(=O)C(CCC(=O)O)NC(=O)c1ccccc1 (configuration not stated) [PROGLUMIDE] | Not Active | Not Active | Not Active | Not Active | Not Active | Not Active | Not Active | Not Active | – | – | –
CCCCOc1ccc(OCCCN2CCOCC2)cc1 [PRAMOXINE] | Not Active | Not Active | Not Active | Not Active | – | Not Active | – | – | Not Active | – | –
CC[C@@H](CO)NCCN[C@@H](CC)CO [ETHAMBUTOL] | Not Active | Not Active | Not Active | Not Active | Not Active | Not Active | Not Active | Not Active | – | – | –
C[C@@H]1C[C@@H]([C@H](O)CC2CC(=O)NC(=O)C2)C(=O)[C@@H](C)C1 [CYCLOHEXIMIDE] | Not Active | Not Active | Not Active | Not Active | Not Active | Not Active | – | – | – | – | –
CCN(CC)CCOC(=O)c1ccc(N)cc1 [PROCAINE] | Not Active | Not Active | Not Active | Not Active | Not Active | Not Active | Not Active | Not Active | – | – | –
COc1ccc2cc([C@H](C)C(=O)O)ccc2c1 [NAPROXEN] | Not Active | Not Active | Not Active | Not Active | Not Active | Not Active | – | – | – | – | –
C#C[C@]1(O)CC[C@H]2[C@@H]3CCc4cc(OC)ccc4[C@H]3CC[C@@]21C [MESTRANOL] | Not Active | Not Active | Not Active | Not Active | – | Not Active | Not Active | Not Active | – | 84.4 | 11
NC(=O)NO [HYDROXYUREA] | Not Active | Not Active | Not Active | Not Active | Not Active | Not Active | – | – | – | – | –
O=C1CC2(CCCC2)CC(=O)N1CCCCN1CCN(c2ncccn2)CC1 [BUSPIRONE] | Not Active | Not Active | Not Active | Not Active | Not Active | Not Active | Not Active | Not Active | – | – | –
Nc1ccn([C@@H]2CS[C@H](CO)O2)c(=O)n1 [LAMIVUDINE] | Not Active | Not Active | Not Active | Not Active | Not Active | Not Active | Not Active | Not Active | – | – | –
C[C@]12CC[C@@H]3c4ccc(OC(=O)c5ccccc5)cc4CC[C@H]3[C@@H]1CC[C@@H]2O [ESTRADIOL BENZOATE] | Not Active | Not Active | Not Active | Not Active | – | Not Active | Not Active | Not Active | – | 9.61 | 1.25
CC(=O)Nc1ccc(O)cc1 [ACETAMINOPHEN] | Not Active | Not Active | Not Active | Not Active | Not Active | Not Active | Not Active | Not Active | – | – | –
C[C@]12CC[C@@H]3c4ccc(O)cc4CC[C@H]3[C@@H]1CC[C@@H]2O [ESTRADIOL] | Not Active | Not Active | Not Active | Not Active | – | Not Active | Not Active | Not Active | – | 32.6 | 4.25
C#C[C@]1(OC(C)=O)CC[C@H]2[C@@H]3CCC4=CC(=O)CC[C@@H]4[C@H]3CC[C@@]21C [NORETHINDRONE ACETATE] | Not Active | Not Active | Not Active | Not Active | – | Not Active | – | – | – | 0.028 | 0.00362
ClC(Cl)Cl [CHLOROFORM] | Not Active | Not Active | Not Active | Not Active | Not Active | Not Active | Not Active | Not Active | – | – | –
CCN1CC(CCN2CCOCC2)C(c2ccccc2)(c2ccccc2)C1=O (configuration not stated) [DOXAPRAM] | Not Active | Not Active | Not Active | Not Active | Not Active | Not Active | Not Active | Not Active | – | – | –
Cn1c(=O)c2c(ncn2CC2OCCO2)n(C)c1=O [DOXOFYLLINE] | Not Active | Not Active | Not Active | Not Active | Not Active | Not Active | Not Active | Not Active | – | – | –
O=C(C1CCCCC1)N1CC(=O)N2CCc3ccccc3C2C1 (configuration not stated) [PRAZIQUANTEL] | Not Active | Not Active | Not Active | Not Active | Not Active | Not Active | Not Active | Not Active | – | – | –
CCOC(=O)[C@H](CCc1ccccc1)N[C@H]1CCc2ccccc2N(CC(=O)O)C1=O [BENAZEPRIL] | Not Active | Not Active | Not Active | Not Active | Not Active | Not Active | Not Active | Not Active | – | – | –
CC(=O)Nc1c(I)c(NC(C)=O)c(I)c(C(=O)O)c1I [DIATRIZOIC ACID] | Not Active | Not Active | Not Active | Not Active | Not Active | Not Active | Not Active | Not Active | – | – | –
O=C1CC[C@H](N2C(=O)c3ccccc3C2=O)C(=O)N1 | Not Active | Not Active | Not Active | Not Active | Not Active | Not Active | Not Active | Not Active | – | – | –
